According to patent publication US8475804B2 (priority 2009, dated 2013):
Counter-ions that a name gives are not always drawn. Like-named read-outs stand apart in the source and are kept apart here. Non-standard residues stand in square brackets, D forms with d. Residues, ends and D or L forms follow the SMILES beside them. *: point of attachment. Nva = CCC[C@H](N)C(=O)O; Cbz = O=C(OCc1ccccc1)*

Test system: Ebola virus
Assay: microbe, parasite or virus in culture
Type: cell-based, Ebolavirus (EBOV)
Conditions: for Emax: read-out: Max Effect

Row | SMILES | Max Effect | Emax (Zaire ebolavirus, Vero) | IC50 (read-out: IC50) | IC50 (Zaire ebolavirus, Vero)
1 | CN(C)C(=O)C(CCN1CCC(O)(c2ccc(Cl)cc2)CC1)(c1ccccc1)c1ccccc1 [Loperamide] | 0.716 | – | – | –
2 | CCOC(=O)N1CCC(=C2c3ccc(Cl)cc3CCc3cccnc32)CC1 [Loratadine] | – | 37.1% | – | –
3 | CCC[C@@H](C=O)NC(=O)[C@H](CC(C)C)NC(=O)[C@H](CC(C)C)NC(=O)OCc1ccccc1 [MG115] (Cbz-Leu-Leu-[Nva]-aldehyde) | 0.693 | – | 0.9 µM | –
4 | CC(C)C[C@@H](C=O)NC(=O)[C@H](CC(C)C)NC(=O)[C@H](CC(C)C)NC(=O)OCc1ccccc1 [MG-132] (Cbz-Leu-Leu-Leu-aldehyde) | – | 90% | – | < 0.6 µM
5 | CO[C@@H]1[C@@H](OC)[C@H](C)[C@@](O)(CC(=O)O)O[C@H]1[C@H](C)[C@H]1O[C@@]2(CC[C@@](C)([C@H]3CC[C@@](C)([C@@H]4O[C@@H]([C@H]5O[C@](C)(O)[C@H](C)C[C@@H]5C)C[C@@H]4O[C@@H]4C[C@H](OC)[C@@H](OC)[C@H](C)O4)O3)O2)C[C@H](O)[C@H]1C [Maduramicin NH4] | – | 45.2% | – | –
6 | O=S(=O)([O-])[O-].[Mg+2] [Magnesium Sulfate] | 0.719 | – | 9.2 µM | –
7 | COC(=O)Nc1nc2ccc(C(=O)c3ccccc3)cc2[nH]1 [Mebendazole] | – | 50% | – | 0.7 µM
8 | CN1C[C@H](CNC(=O)OCc2ccccc2)C[C@@H]2c3cccc4c3c(cn4C)C[C@H]21 [Metergoline] | – | 57.7% | – | 6.1 µM
9 | CN1CCC(CN2c3ccccc3Sc3ccccc32)C1 (centres unmarked) [Methdilazine Hydrochloride] | – | 51.9% | – | 7.1 µM
10 | COc1c(C)c2c(c(O)c1C/C=C(\C)CCC(=O)O)C(=O)OC2 [Mycophenolic Acid] | – | 80% | – | < 1 µM
11 | Nc1ccc(C(=O)N[C@@H](CCC(=O)O)C(=O)O)cc1 [N-(4-Aminobenzoyl)-L-glutamic acid] | – | 85.5% | – | 9.7 µM
12 | COc1ccc(OC)c2c(=S)c3ccccc3[nH]c12 [NSC 625987] | 0.418 | – | – | –
13 | O=C(Nc1ccc([N+](=O)[O-])cc1Cl)c1cc(Cl)ccc1O [Niclosamide] | – | 84.2% | – | 2.6 µM
14 | COC(=O)Nc1nc2ccc(C(=O)c3cccs3)cc2[nH]1 [Nocodazole] | – | 80% | – | 0.5 µM
15 | CCCCCCCCOC(=O)c1cc(O)c(O)c(O)c1 [Octyl Gallate] | – | 43.9% | – | –
16 | C=C1[C@@H](O)[C@@H]2O[C@]3(CC[C@H](/C=C/[C@@H](C)[C@@H]4CC(C)=C[C@@]5(O[C@H](C[C@@](C)(O)C(=O)O)CC[C@H]5O)O4)O3)CC[C@H]2O[C@@H]1[C@@H](O)C[C@H](C)[C@H]1O[C@@]2(CCCCO2)CC[C@H]1C [Okadaic Acid] | – | 48.8% | – | –
17 | CC[C@H]1/C=C/C=C/C[C@@H](C)[C@H](O)[C@@](C)(O)C(=O)[C@@H](C)[C@H](O)[C@@H](C)C(=O)[C@@H](C)[C@H](O)[C@@H](C)/C=C/C(=O)O[C@@H]2[C@H](C)[C@H](CC1)O[C@]1(CC[C@H](C)[C@H](C[C@@H](C)O)O1)[C@H]2C [Oligomycin] | – | 42.6% | – | –
18 | O=c1[nH]c2ccccc2n1CCCN1CCN(C(c2ccccc2)c2ccccc2)CC1 [Oxatomide] | – | 62.2% | – | 2.1 µM
19 | CCCOc1ccc2nc(NC(=O)OC)[nH]c2c1 [Oxibendazole] | – | 47.2% | – | –
20 | CCCCCCCCCC(=O)NC(CN1CCOCC1)C(O)c1ccccc1.Cl (centres unmarked) [PDMP Hydrochloride] | 0.390 | – | – | –
21 | O=C(OC[C@H]1O[C@@H](OC(=O)c2cc(O)c(O)c(O)c2)[C@H](OC(=O)c2cc(O)c(O)c(O)c2)[C@@H](OC(=O)c2cc(O)c(O)c(O)c2)[C@@H]1OC(=O)c1cc(O)c(O)c(O)c1)c1cc(O)c(O)c(O)c1 [PGG (1,2,3,4,6-b-O-Pentagalloyl glucose), 1,2,3,4,6-b-O-Pentagalloyl glucose] | 0.487 | – | 3.2 µM | –
22 | O=C1Nc2ccc3ncsc3c2/C1=C/c1cnc[nH]1 [PKR inhibitor] | 0.434 | – | – | –

Row | SMILES | Max Effect | Emax (Zaire ebolavirus, Vero) | IC50 (read-out: IC50) | IC50 (Zaire ebolavirus, Vero)
23 | CCCCCCCCCCCCCC(=O)O[C@@H]1[C@@H](C)[C@@]2(O)[C@@H](C=C(CO)C[C@]3(O)C(=O)C(C)=C[C@@H]23)[C@@H]2C(C)(C)[C@]12OC(C)=O [PMA] | 0.800 | – | < 0.18 µM | –
24 | N=C(N)c1ccc(OCCCCCOc2ccc(C(=N)N)cc2)cc1 [Pentamidine] | – | 42.2% | – | 10.5 µM
25 | CCCN1C[C@H](CSC)C[C@@H]2c3cccc4[nH]cc(c34)C[C@H]21 [Pergolide Mesylate] | – | 38.3% | – | –
26 | C1CCC(C(CC2CCCCN2)C2CCCCC2)CC1 (centres unmarked) [Perhexiline Maleate] | – | 89% | – | 4.1 µM
27 | OCCN1CCN(CCCN2c3ccccc3Sc3ccc(Cl)cc32)CC1 [Perphenazine] | – | 79.3% | – | 5.8 µM
28 | COc1cc([C@@H]2c3cc4c(cc3[C@H](O)[C@H]3COC(=O)[C@H]23)OCO4)cc(OC)c1OC [Podofilox] | – | 80% | – | 1.8 µM
29 | CCC(=O)O[C@](Cc1ccccc1)(c1ccccc1)[C@H](C)CN(C)C [Propoxyphene Hydrochloride] | – | 42.2% | – | –
30 | COc1ccc(C[C@H](N)C(=O)N[C@H]2[C@@H](O)[C@H](n3cnc4c(N(C)C)ncnc43)O[C@@H]2CO)cc1 [Puromycin dihydrochloride] | – | 83.5% | – | 6.6 µM
31 | [O-][n+]1ccccc1[S-].[O-][n+]1ccccc1[S-].[Zn+2] [Pyrithione Zinc] | 0.767 | – | – | –
32 | Cc1cc(/C=C/c2ccc3cc(N(C)C)ccc3[n+]2C)c(C)n1-c1ccccc1 [Pyrvinium Pamoate] | – | 80% | – | 3.4 µM
33 | C#C[C@]1(O)CC[C@H]2[C@@H]3CCc4cc(OC5CCCC5)ccc4[C@H]3CC[C@@]21C [Quinestrol] | – | 54.9% | – | 7.2 µM
34 | O=C(c1ccc(OCCN2CCCCC2)cc1)c1c(-c2ccc(O)cc2)sc2cc(O)ccc12 [Raloxifene Hydrochloride] | – | 69.1% | – | 2.4 µM
35 | COC(=O)[C@H]1[C@H]2C[C@@H]3c4[nH]c5cc(OC)ccc5c4CCN3C[C@H]2C[C@@H](OC(=O)/C=C/c2cc(OC)c(OC)c(OC)c2)[C@@H]1OC [Rescinnamine] | – | 51.2% | – | –
36 | CC(C)c1nc(CN(C)C(=O)N[C@H](C(=O)N[C@@H](Cc2ccccc2)C[C@H](O)[C@H](Cc2ccccc2)NC(=O)OCc2cncs2)C(C)C)cs1 [Ritonavir] | – | 48.5% | – | –
37 | C=C(C)[C@H]1Cc2c(ccc3c2O[C@@H]2COc4cc(OC)c(OC)cc4[C@@H]2C3=O)O1 [Rotenone] | – | 70% | – | < 2 µM
38 | Oc1c2ccccc2c2c3c(cccc13)N=N2 [SP 600125] | – | 36.5% | – | –
39 | NC(=O)c1cn([C@@H]2O[C@H](CO)[C@@H](O)[C@H]2O)c2ncnc(N)c12 [Sangivamycin Hydrate] | – | 90% | – | < 0.2 µM
40 | O=C([O-])O.[Na+] [Sodium Bicarbonate] | 0.389 | – | – | –
41 | CNC(=O)c1cc(Oc2ccc(NC(=O)Nc3ccc(Cl)c(C(F)(F)F)c3)cc2)ccn1 [Sorafenib Tosylate] | – | 81.9% | – | 3.9 µM
42 | CCN(CC)CCNC(=O)c1c(C)[nH]c(/C=C2\C(=O)Nc3ccc(F)cc32)c1C [Sunitinib Malate] | – | 78.8% | – | 4.4 µM
43 | CC/C(=C(\c1ccccc1)c1ccc(OCCN(C)C)cc1)c1ccccc1 [Tamoxifen] | – | 90% | – | –
